Reference: patent US11020414B2, “Antimicrobial compositions with cysteamine” (priority 2010, dated 2021)
Converted amounts (≈) assume the structure as drawn.

What was measured:
[1] = test system: Pseudomonas aeruginosa Pa14; assay: MIC determination, strain Pa14; format: cell-based; details: for MIC: read-out: MIC100
Description: (§1) The bacterial inoculum was established by the dilution method from actively-growing cultures in Mueller-Hinton (MH) broth, standardized with 0.5 McFarland turbidity standard as described in the CLSI method M26-A.
(§2) Both the bacterial inoculum and the antimicrobial agents, including the compounds structurally related to cysteamine, were added simultaneously to the plates. The plates were incubated at 37° C. for 24 h and the optical density was read at 625 nm on a microtitre plate reader (BioTek Powerwave XS, Winooski, USA). […]
(§3) A number of compounds related in chemical structure to cysteamine were examined for antimicrobial activity; cystamine (dihydrochloride salt), taurine and 2,3-dimercaptosuccinic acid. Other compounds chemically related to cysteamine are known, but are toxic, and are therefore of no utility in a drug of this nature.

[2] = test system: Pseudomonas aeruginosa Pa058; assay: MIC determination, strain Pa058; format: cell-based; details: for MIC: read-out: MIC100
Description: as §1, §2, §3

[3] = test system: Pseudomonas aeruginosa Pa01; assay: MIC determination, strain Pa01; format: cell-based; details: for MIC: read-out: MIC100
Description: as §1, §2, §3

[4] = test system: Pseudomonas aeruginosa NH57388A; assay: MIC determination, strain NH57388A; format: cell-based; details: for MIC: read-out: MIC100
Description: as §1, §2, §3

P. aeruginosa ATCC 27853 = assay: MIC and FIC of antibiotics with cysteamine, environments mimicking a CF lung; format: cell-based, Pseudomonas aeruginosa
Description: Both the bacterial inoculum and the antimicrobial agents, including the compounds structurally related to cysteamine, were added simultaneously to the plates. The plates were incubated at 37° C. for 24 h and the optical density was read at 625 nm on a microtitre plate reader (BioTek Powerwave XS, Winooski, USA). The MIC was obtained as the lowest concentration of antimicrobial showing total inhibition of bacterial growth.
The FIC corresponds to an interaction coefficient indicating whether the combination of antimicrobial agents is synergistic, additive, antagonist or neutral. The FIC is determined by comparing the activity of an agent in combination (MIC of agent A+agent B) with the activity of the agent alone (MIC of agent A or agent B) as follow (Singh et al., 2000): FIC=MICA[combination]/MICA[alone]+MICB[combination]/MICB[alone]
The range of concentrations of antimicrobial agents was 0-10 μg/ml.

| Compound | MIC50 [1] [µg/mL] | MIC90 [1] [µg/mL] | MIC [1] [µg/mL] | MIC50 [2] [µg/mL] | MIC90 [2] [µg/mL] | MIC [2] [µg/mL] | MIC50 [3] [µg/mL] | MIC90 [3] [µg/mL] | MIC [3] [µg/mL] | MIC50 [4] [µg/mL] | MIC90 [4] [µg/mL] | MIC [4] [µg/mL] | MIC upon administration with cysteamine compared to administration alone (P. aeruginosa ATCC 27853; environments mimicking those found in a CF lung) | antimicrobial effect in combination with cysteamine (P. aeruginosa ATCC 27853; mucolytic environment) |
| --- | --- | --- | --- | --- | --- | --- | --- | --- | --- | --- | --- | --- | --- | --- |
| O=C(O)C(S)C(S)C(=O)O (centres unmarked) [2,3-Dimercaptosuccinic Acid, 2,3-dimercaptosuccinic acid] | 1000 to 2000 (≈ 5.49 to 11 mM) | 1000 to 2000 (≈ 5.49 to 11 mM) | > 2000 | 500 to 2000 (≈ 2.74 to 11 mM) | 1000 to 2000 (≈ 5.49 to 11 mM) | 2000 (≈ 11 mM) | 1000 to 2000 (≈ 5.49 to 11 mM) | > 2000 | > 2000 | 500 to 2000 (≈ 2.74 to 11 mM) | 1000 to 2000 (≈ 5.49 to 11 mM) | 2000 (≈ 11 mM) |  |  |
| O=C(O)c1cn(C2CC2)c2cc(N3CCNCC3)c(F)cc2c1=O [Ciprofloxacin] |  |  |  |  |  |  |  |  |  |  |  |  | greatly reduced | maintained |
| NCCSSCCN [Cystamine, cystamine] | 125 to 250 (≈ 0.821 to 1.64 mM) | 1000 to 2000 (≈ 6.57 to 13.1 mM) | 2000 (≈ 13.1 mM) | 250 to 500 (≈ 1.64 to 3.28 mM) | 1000 to 2000 (≈ 6.57 to 13.1 mM) | 2000 (≈ 13.1 mM) | 250 to 1000 (≈ 1.64 to 6.57 mM) | 1000 to 2000 (≈ 6.57 to 13.1 mM) | 2000 (≈ 13.1 mM) | 500 to 1000 (≈ 3.28 to 6.57 mM) | 1000 to 2000 (≈ 6.57 to 13.1 mM) | 2000 (≈ 13.1 mM) |  |  |
